Results from patent publication US20200261534A1, “NEW TREATMENTS OF MULTIPLE MYELOMA” (priority 2017, published 2020).
Read-outs that look alike come from different tables or passages of the source. Starred links: 1 amine or outer side, 2 acyl side, 3 side chain; linkers in the order of their positions; H or OH if unused. Positions of bridges follow the written chain, without caps; N, C: chain ends. Non-standard residues stand in square brackets, D forms with d. Residues, ends and D or L forms follow the SMILES beside them. No end group written: not given here. ξ: configuration not given here. ξαMeNle(6-ylidene) = CC(CCCC=[*:3])(N[*:1])C(=O)[*:2]; X1 = CC(CCCCCCC=[*:3])(N[*:1])C(=O)[*:2]; Octanediyl(1,8) = C(CCCC[*:2])CCC[*:1]; ξC = NC(CS)C(=O)O

Assays:
Type in all cases: cell-based
[1] = test system: MCF-7, epithelial (breast cancer)
Method: (§1) MCF-7, epithelial (breast cancer), ECACC: 86012803 […] During the amplification step and the assays adherent cells were rinsed with DPBS (Dulbecco's Phosphate Buffered Saline, Sigma D1283) three times and afterward treated for 5 minutes with trypsin ([…]) (Gibco-BRL, 15400054) in solution of DPBS at 37° C., and, once detached, transferred in the culturing medium. No-adherent cells were centrifuged and transferred in the culturing medium. Cells were counted in a Neubauer chamber after labelling with Tripan-Blue. […] Cells were seeded at a density of 10000 cells/well in 100 μl of medium in 96 well plates. […] Controls are the untreated cells. Each experiment was performed in triplicate. Cells were incubated with the compounds at the indicated concentrations during 24-72 h in incubator under CO2 atmosphere at 37° C. […] Stock solution of MTT (475989 Calbiochem) was 5 mg/ml in PBS. 1×.10 μl/well of MTT solution were added and the plate was incubated for 3-4 hr. […] Plates were incubated for 16 h at room temperature under orbital shaking. Absorbance at 570 nm was finally measured. […] The dose/response curve was fitted through the sigmoidal equation dose-response (variable slope) and the IC50 values were calculated as follow: Y=Bottom+(Top−Bottom)/(1+10^{[(LogIC50−X)*HillSlope]},

[2] = test system: RAMOS, B lymphocyte (Burkitt's Lymphoma); assay: MTT viability assay, RAMOS
Method: as §1, with “RAMOS, B lymphocyte (Burkitt's Lymphoma), ATCC: CRL-1596” for “MCF-7, epithelial (breast cancer), ECACC: 86012803”

[3] = test system: U266DOX4, lymphoblast (myeloma), selected for resistance to Doxorubicin; conditions: U266DOX4; 72 hr; Table 14; read-out: IC50 after 72 hr values
Method: U266DOX4, lymphoblast (myeloma), selected for resistance to Doxorubicin (Alvarez-Fernández et al. Clin Cancer Res. 2013 May 15; 19(10):2677-87).
All cell lines were cultured in incubator at 37° C. in RPMI-1640 (Sigma R8758) medium with 10% of fetal bovine serum inactivated (FBS) and 2 mM glutamine (Sigma G7513). During the amplification step cells were centrifuged and transferred into the culturing medium. Cells were counted in a Neubauer chamber after labelling with Tripan-Blue.
Cells were seeded at a density of 10000 cells/well in 100 μl of medium in 96 well plates. After 24 h, the compounds to be tested were added to calculate the dose/response curve at the starting concentration of 100 μM with serial dilutions (1:1). Controls are the untreated cells. Each experiment was performed in triplicate.
Cells were incubated with the peptidomimetic compound (S09) at the indicated concentrations during 24-72 h in incubator under CO2 atmosphere at 37° C. Then, cell viability was measured by means of MTT (3-(4,5-dimethylthiazol-2-yl)-2,5-diphenyltetrazolium bromide) assay. Stock solution of MTT (475989 Calbiochem) was 5 mg/ml in PBS. 1×.10 μl/well of MTT solution were added and the plate was incubated for 3-4 hr. The medium was discarded and 100 μl of extracting buffer (PBS 1×, 15% SDS, 50% […] N,N-Dimethylformamide, pH 4.7) were added to each well. Plates were incubated for 16 h at room temperature under orbital shaking. Absorbance at 570 nm was finally measured. As negative control (experiment noise) 3 wells were treated with 20 μl/well of a solution of SDS 10% in H2O.
Data analysis was performed calculating the percentage of cell viability normalized vs. the values of negative control, which was considered equal to 100%. The dose/response curve was fitted through the sigmoidal equation dose-response (variable slope) and the IC50 values were calculated as follow:
Y=Bottom+(Top−Bottom)/(1+10^{[(LogIC50−X)*HillSlope]},
U266DOX4, lymphoblast (myeloma), selected for resistance to Doxorubicin (Alvarez-Fernandez et al. Clin Cancer Res. 2013 May 15; 19(10):2677-87).
All cell lines were cultured in incubator at 37° C. in RPMI-1640 (Sigma R8758) medium with 10% of fetal bovine serum inactivated (FBS) and 2 mM glutamine (Sigma G7513).
Cells were seeded at a density of 10,000 cells/well in 100 μl of medium in 96 well plates. After 24 h, the compounds to be tested were added to calculate the dose/response curve at the starting concentration of 40 μM with serial dilutions (1:1). […]
Cells were incubated with the peptidomimetic compounds at the indicated concentrations during 24-72 h in incubator under CO2 atmosphere at 37° C. Then, cell viability was measured by means of MTT (3-(4,5-dimethylthiazol-2-yl)-2,5-diphenyltetrazolium bromide) assay. […] Absorbance at 570 nm was finally measured. […]

[4] = MCF7, same protocol as Example 2, Table 6, read-out: Compound (IC50)
[5] = Ramos, same protocol as Example 2, Table 6, read-out: Compound (IC50)

Molecule | IC50 [1] [µM] | IC50 [2] [µM] | IC50 [1, 4] [µM] | IC50 [2, 5] [µM] | also measured
CCc1ccc(/C=C2/SC(=S)NC2=O)cc1 [10058-F4, reference compound] |  |  |  |  | IC50 ([1]; MCF7, MTT, incubation 24-72 h, Table 3, read-out: IC50 values): ~52 µM; IC50 ([2]; Ramos, MTT, incubation 24-72 h, Table 3, read-out: IC50 values): ~57 µM
CC[C@H](C)[C@H](NC(=O)[C@H](Cc1ccc(O)cc1)NC(=O)[C@H](C)NC(=O)C1CSCCCCCCCCSCC(NC(=O)[C@H](CCCCN)NC(=O)[C@@H]2CCCN2C(=O)[C@H](C)N)C(=O)N[C@@H](C(C)C)C(=O)N[C@@H]([C@@H](C)CC)C(=O)N[C@@H](CC(C)C)C(=O)N[C@@H](CCCCN)C(=O)N[C@@H](CCCCN)C(=O)N[C@@H](C)C(=O)N1)C(=O)N[C@@H](CC(C)C)C(=O)N[C@@H](CO)C(=O)O (some centres unmarked) [IDP-P1708160] (H-APK[ξC]VILKKA[ξC]AYILS-OH; linker 4-11 via Octanediyl(1,8); N-terminus and C-terminus assumed) |  |  |  |  | IC50 [3]: 7.5 µM
CC[C@H](C)[C@H](NC(=O)[C@@H](NC(=O)[C@@H](NC(=O)[C@H](CCCCN)NC(=O)[C@@H]1CCCN1C(=O)[C@H](C)N)C(C)C)C(C)C)C(=O)NC1(C)CCCCCCC=CCCCC(C)(C(=O)N[C@@H](CC(C)C)C(=O)N[C@@H](CO)C(=O)O)NC(=O)[C@H](Cc2ccc(O)cc2)NC(=O)[C@H](C)NC(=O)[C@H]([C@@H](C)O)NC(=O)[C@H](C)NC(=O)[C@H](CCCCN)NC(=O)[C@H](CCCCN)NC1=O (some centres unmarked) [IDP-S17, APKVVIXKKATAYXLS] (H-APKVVI[X1]KKATAY[ξαMeNle(6-ylidene)]LS-OH; staple 7-14; N-terminus and C-terminus assumed) | > 100 | > 100 |  |  | 
CC[C@H](C)[C@@H]1NC(=O)[C@H](Cc2ccc(O)cc2)NC(=O)[C@H](C)NC(=O)[C@H]([C@@H](C)O)NC(=O)[C@H](C)NC(=O)[C@H](CCCCN)NC(=O)C(C)(NC(=O)[C@H](CC(C)C)NC(=O)[C@@H](NC(=O)[C@@H](NC(=O)[C@@H](NC(=O)[C@H](CCCCN)NC(=O)[C@@H]2CCCN2C(=O)[C@H](C)N)C(C)C)C(C)C)[C@@H](C)CC)CCCCCCC=CCCCC(C)(C(=O)N[C@@H](CO)C(=O)O)NC1=O (some centres unmarked) [IDP-S18, APKVVILXKATAYIXS] (H-APKVVIL[X1]KATAYI[ξαMeNle(6-ylidene)]S-OH; staple 8-15; N-terminus and C-terminus assumed) | > 100 | > 100 |  |  | 
CC[C@H](C)[C@H](NC(=O)[C@H](Cc1ccc(O)cc1)NC(=O)[C@H](C)NC(=O)[C@@H](NC(=O)[C@H](C)NC(=O)C1(C)CCCC=CCCCCCCC(C)(NC(=O)[C@H](C)N)C(=O)N[C@@H](CCCCN)C(=O)N[C@@H](C(C)C)C(=O)N[C@@H](C(C)C)C(=O)N[C@@H]([C@@H](C)CC)C(=O)N[C@@H](CC(C)C)C(=O)N[C@@H](CCCCN)C(=O)N1)[C@@H](C)O)C(=O)N[C@@H](CC(C)C)C(=O)N[C@@H](CO)C(=O)O (some centres unmarked) [IDP-S19, AXKVVILKXATAYILS] (H-A[X1]KVVILK[ξαMeNle(6-ylidene)]ATAYILS-OH; staple 2-9) |  |  | > 100 | > 100 | 
CC[C@H](C)[C@H](NC(=O)[C@H](Cc1ccc(O)cc1)NC(=O)C1(C)CCCC=CCCCCCCC(C)(NC(=O)[C@@H](NC(=O)[C@H](CCCCN)NC(=O)[C@@H]2CCCN2C(=O)[C@H](C)N)C(C)C)C(=O)N[C@@H]([C@@H](C)CC)C(=O)N[C@@H](CC(C)C)C(=O)N[C@@H](CCCCN)C(=O)N[C@@H](CCCCN)C(=O)N[C@@H](C)C(=O)N[C@@H]([C@@H](C)O)C(=O)N1)C(=O)N[C@@H](CC(C)C)C(=O)N[C@@H](CO)C(=O)O (some centres unmarked) [IDP-S21, APKVXILKKATXYILS] (H-APKV[X1]ILKKAT[ξαMeNle(6-ylidene)]YILS-OH; staple 5-12) |  |  | > 100 | > 100 | 
CC[C@H](C)[C@H](NC(=O)C1(C)CCCC=CCCCCCCC(C)(NC(=O)[C@@H](NC(=O)[C@@H](NC(=O)[C@H](CCCCN)NC(=O)[C@@H]2CCCN2C(=O)[C@H](C)N)C(C)C)C(C)C)C(=O)N[C@@H](CC(C)C)C(=O)N[C@@H](CCCCN)C(=O)N[C@@H](CCCCN)C(=O)N[C@@H](C)C(=O)N[C@@H]([C@@H](C)O)C(=O)N[C@@H](C)C(=O)N1)C(=O)N[C@@H](CC(C)C)C(=O)N[C@@H](CO)C(=O)O (some centres unmarked) [IDP-S22, APKVVXLKKATAXILS] (H-APKVV[X1]LKKATA[ξαMeNle(6-ylidene)]ILS-OH; staple 6-13; N-terminus and C-terminus assumed) | > 100 | > 100 |  |  | 
CC[C@H](C)[C@@H]1NC(=O)[C@H](Cc2ccc(O)cc2)NC(=O)[C@H](C)NC(=O)[C@H]([C@@H](C)O)NC(=O)[C@H](C)NC(=O)C(C)(NC(=O)[C@H](CCCCN)NC(=O)[C@H](CC(C)C)NC(=O)[C@@H](NC(=O)[C@@H](NC(=O)[C@@H](NC(=O)[C@H](CCCCN)NC(=O)[C@@H]2CCCN2C(=O)[C@H](C)N)C(C)C)C(C)C)[C@@H](C)CC)CCCCCCC=CCCCC(C)(C(=O)N[C@H](C(=O)O)C(C)C)NC(=O)[C@H](CC(C)C)NC1=O (some centres unmarked) [IDP-S23, APKVVILKXATAYILXV] (H-APKVVILK[X1]ATAYIL[ξαMeNle(6-ylidene)]V-OH; staple 9-16) |  |  | > 100 | > 100 | 
RQIKIWFQNRRMKWKKNELKRAFAALRDQI [Int-HI-S6A-F8, reference compound] | > 100 | > 100 |  |  | 
